Assay results taken from patent US4518528A, “α Amino fluoro ketones” (priority 1984, dated 1985).
Where a SMILES comes first, the peptide text is derived from it. [ ]: non-standard residue; d: D form. The star is where a group is joined. ξ: configuration not given here. ξF = NC(Cc1ccccc1)C(=O)O; Cbz = O=C(OCc1ccccc1)*; CH2F = FC*

Experiments:
[1] = test system: glandular kallikrein; assay: Inhibition of glandular kallikrein by the method of Example 23; assay type: biochemical; settings: protease about 10 μM, ketone inhibitor about 0.1 mM
Procedure: (§1) An aqueous solution of elastase (0.3 μM) in 0.1M TES pH 8.2 containing CaCl2 (10 mM) was assayed against the synthetic substrate MeOSuc-Ala-Ala-Pro-Val-MNA. The liberated detecting group (MNA) was quantitated by fluorescence. A standard number of enzyme units were preincubated with each inhibitor at several concentrations for set time periods of 5, 15, 30, and 60 minutes at 37°; then all test samples were individually assayed for activity using the same synthetic substrate and conditions as per control with inhibitors absent. The amount of enzyme activity inhibited by each inhibitor was determined by subtracting the residual activity for each inhibitor against the control activity.
Following the method of Example 23 above, the serine protease glandular kallikrein is inhibited by the ketone inhibitor D-Val-Leu-ArgCH2 F with a protease concentration of about 10 μM and a ketone inhibitor concentration of about 0.1 mM.

[2] = test system: cathepsin L; assay: Inhibition of cathepsin L by the method of Example 22; assay type: biochemical; settings: same conditions and concentrations of protease to ketone inhibitor as Example 22
Procedure: (§2) Enzyme activity was assayed using the synthetic oligopeptide substrate Bz-Val-Lys-Arg-AFC with 10 mM DTT and 1 mM of the activator salt EDTA at pH 6.5 by fluorescence detection of the liberated AFC. Units of enzyme activity were standardized per 100 ml of a 50 percent of glycerol-phosphate buffer solution. A standard concentration of enzyme (10 nM) was preincubated with each inhibitor (50 nM) over set time periods of 3, 5, 10, 15, 20 and 30 minutes, 25°; then all test samples were individually assayed for activity using the same synthetic substrate and condition to determine the remaining units of activity of the purified enzyme. The amount of enzyme activity inhibited by each inhibitor was determined by subtracting the residual activity for each inhibitor against the control activity.

[3] = target: T1, cathepsin B (Rattus norvegicus, UniProt P00787); assay: Rate of inhibition of cathepsin B in rat tissue homogenates; assay type: biochemical; settings: inhibitor 0.10 μM, 25°
T1 construct: cathepsin B in rat spleen, pancreas, liver and kidney tissue homogenates; from tissue; host or cells: rat spleen, pancreas, liver and kidney (supernatant of homogenates)
Procedure: as §2, with “activity. […] The inhibitor specificity constant (k3 /KI) for Z-Phe-AlaCH2 F is 30 fold higher than for Z-Phe-AlaCHN2.” for “activity.”
The rate of inhibition of cathepsin B in rat spleen, pancreas, liver and kidney tissue homogenates was assayed using the inhibitors: Z-Phe-AlaCHN2; Z-Phe-AlaCH2 Cl; and Z-Phe-AlaCH2 F.
The proceding tissues were homogenized, centrifuged at 13,000 rpm for 25 minutes and the supernatant removed. Aliquots of the supernatant were diluted with water to yield a concentration of 0.01 μM. The method of Example 9 was followed. As soon in Table III, the inhibition by the three inhibitors relevant to Cathepsin B were compared for each of the tissue samples. Results are expressed as .tau. (the half-time of inactivation, inhibition). […] The concentration for the inhibitors was 0.10 μM and the incubation temperature was 25°.

[4] = test system: porcine pancreatic elastase; assay: Irreversible inhibition of elastase, fluorescence assay with MeOSuc-Ala-Ala-Pro-Val-MNA; assay type: biochemical; settings: alkaline conditions (0.1M TES pH 8.2, 10 mM CaCl2), 37°
Procedure: as §1

[5] = test system: cathepsin B; assay: Irreversible inhibition of purified cathepsin B, fluorescence assay with Bz-Val-Lys-Arg-AFC; assay type: biochemical, human and rat; settings: for k3 (rate constant of inactivation) / Ki: pH 6.5, 10 mM DTT, 1 mM EDTA, 25°; for Ki: read-out: KI (inhibitor dissociation constant); for k3 /KI (inhibitor specificity constant): pH 6.5, 25°
Procedure: as §2, with “([…])” for “(10 nM) was preincubated with each inhibitor (50 nM)”, “activity. […] The inhibitor specificity constant (k3 /KI) for Z-Phe-AlaCH2 F is 30 fold higher than for Z-Phe-AlaCHN2.” for “activity.”

[6] = test system: plasma kallikrein; assay: Inhibition of plasma kallikrein by the method of Example 23; assay type: biochemical; settings: protease about 10 μM, ketone inhibitor about 0.1 mM
Procedure: as §1
Following the method of Example 23, above, the serine protease plasma kallikrein is inhibited by the ketone inhibitor D-Pro-Phe-ArgCH2 F under the same conditions with a protease concentration of about 10 μM and ketone inhibitor concentration of about 0.1 mM.

[7] = test system: plasminogen activator; assay: Inhibition of plasminogen activator by the method of Example 23; assay type: biochemical; settings: protease about 50 μM, ketone inhibitor about 0.1 mM
Procedure: as §1
Following the method of Example 23, above, the serine protease plasminogen activator is inhibited by MeOSuc-Gly-Gly-ArgCH2 F under the same conditions with a protease concentration of about 50 μM and a ketone inhibitor concentration of about 0.1 mM.

[8] = test system: trypsin; assay: Inhibition of trypsin by the method of Example 23; assay type: biochemical; settings: protease about 10 μM, ketone inhibitor about 0.1 mM
Procedure: as §1
Following the method of Example 23 above, the serine protease trypsin is inhibited by the ketone inhibitor Z-LysCH2 F with a protease concentration of about 10 μM and a ketone inhibitor concentration of about 0.1 mM.

T1 sequence (P00787 80-339): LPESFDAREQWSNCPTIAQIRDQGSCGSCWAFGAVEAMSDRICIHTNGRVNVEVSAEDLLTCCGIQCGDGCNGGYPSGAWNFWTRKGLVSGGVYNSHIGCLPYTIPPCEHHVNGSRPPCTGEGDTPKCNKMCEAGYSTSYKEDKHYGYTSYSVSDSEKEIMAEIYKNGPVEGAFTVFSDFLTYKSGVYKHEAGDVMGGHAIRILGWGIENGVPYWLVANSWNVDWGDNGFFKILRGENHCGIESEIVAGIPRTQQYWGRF

CC(C)C[C@H](NC(=O)[C@H](N)C(C)C)C(=O)N[C@@H](CCCNC(=N)N)C(=O)CF [D-Val-Leu-ArgCH2 F] (HELM PEPTIDE1{[dV].L.R.[FC[*:1]]}$$$$V2.0)
inhibition of glandular kallikrein (in words) [1]: inhibited

O=C(N[C@@H](Cc1ccccc1)C(=O)NC(Cc1ccccc1)C(=O)CF)OCc1ccccc1 (stereo partly drawn) [Z-Phe-PheCH2 F] (Cbz-Phe-[ξF]-CH2F)
inhibition of cathepsin L (in words) [2]: inhibited

CC(NC(=O)[C@H](Cc1ccccc1)NC(=O)OCc1ccccc1)C(=O)CF (stereo partly drawn) [Z-Phe-AlaCH2 F, 3-(N-Benzyloxycarbonylphenylalanylamido)-1-fluoro-2-butanone]
inhibition of cathepsin L (in words) [2]: inhibited | .tau. Half-Time (half-time of inactivation) ([3]; rat KIDNEY homogenate): 7.9 min | .tau. Half-Time (half-time of inactivation) ([3]; rat LIVER homogenate): 8.5 min | .tau. Half-Time (half-time of inactivation) ([3]; rat PANCREAS homogenate): 12.4 min | .tau. Half-Time (half-time of inactivation) ([3]; rat SPLEEN homogenate): 14.2 min | inhibition of porcine pancreatic elastase (in words) [4]: inhibits | inhibition of purified cathepsin B (in words) ([5]; 0.1 μM inhibitor): effective inhibitor | k3 /KI fold higher than for Z-Phe-AlaCHN2 ([5]; purified cathepsin B): 30 fold | k3 (rate constant of inactivation) ([5]; purified cathepsin B): 9.2±1.3×10^-3 s^-1 | Ki ([5]; purified cathepsin B): 0.57 ± 0.09 µM | k3 /KI (inhibitor specificity constant) ([5]; purified cathepsin B): 16,200 M^-1 s^-1

C[C@H](NC(=O)[C@H](Cc1ccccc1)NC(=O)OCc1ccccc1)C(=O)C=[N+]=[N-] [Z-Phe-AlaCHN2]
.tau. Half-Time (half-time of inactivation) ([3]; rat KIDNEY homogenate): 20.1 min | .tau. Half-Time (half-time of inactivation) ([3]; rat LIVER homogenate): 22.4 min | .tau. Half-Time (half-time of inactivation) ([3]; rat PANCREAS homogenate): 15.8 min | .tau. Half-Time (half-time of inactivation) ([3]; rat SPLEEN homogenate): 26.4 min | k3 (rate constant of inactivation) ([5]; purified cathepsin B): 4.1±1.7×10^-3 s^-1 | Ki ([5]; purified cathepsin B): 7.4 ± 3 µM | k3 /KI (inhibitor specificity constant) ([5]; purified cathepsin B): 546 M⁻¹ s⁻¹

C[C@H](NC(=O)[C@H](Cc1ccccc1)NC(=O)OCc1ccccc1)C(=O)CCl [Z-Phe-AlaCH2 Cl]
.tau. Half-Time (half-time of inactivation) ([3]; rat KIDNEY homogenate): 76.6 min | .tau. Half-Time (half-time of inactivation) ([3]; rat LIVER homogenate): 66.5 min | .tau. Half-Time (half-time of inactivation) ([3]; rat PANCREAS homogenate): 21.4 min | .tau. Half-Time (half-time of inactivation) ([3]; rat SPLEEN homogenate): 74.2 min

N=C(N)NCCC[C@H](NC(=O)[C@H](Cc1ccccc1)NC(=O)[C@H]1CCCN1)C(=O)CF [D-Pro-Phe-ArgCH2 F] (HELM PEPTIDE1{[dP].F.R.[FC[*:1]]}$$$$V2.0)
inhibition of plasma kallikrein (in words) [6]: inhibited

COC(=O)CCC(=O)NCC(=O)NCC(=O)NC(CCCNC(=N)N)C(=O)CF (stereo not drawn) [MeOSuc-Gly-Gly-ArgCH2 F]
inhibition of plasminogen activator (in words) [7]: inhibited

NCCCCC(NC(=O)OCc1ccccc1)C(=O)CF (stereo not drawn) [Z-LysCH2 F]
inhibition of trypsin (in words) [8]: inhibited
